Test results: patent US20050004124A1, “THERAPIES RELATING TO COMBINATIONS OF ALDOSE REDUCTASE INHIBITORS AND CYCLOOXYGENASE-2 INHIBITORS” (priority 2001, published 2005)

| melting point [°C] | Compound |
| --- | --- |
| 186 to 189 | O=c1ccc(S(=O)(=O)c2oc3ccccc3c2O)n[nH]1 [Example 16, 6-(3-Hydroxy-benzofuran-2-sulfonyl)-2H-pyridazin-3-one] |
| 233 to 235 | Cn1c(S(=O)(=O)c2ccc(=O)[nH]n2)cc2ccccc21 [Example 40, 6-(N-Methylindole-2-sulfonyl)-2H-pyridazin-3-one] |
| 250 | O=c1ccc(S(=O)(=O)c2[nH]c3ccccc3c2Cl)n[nH]1 [Example 36, 6-(3-Chloro-indole-2-sulfonyl)-2H-pyridazin-3-one] |
